Results: ChEMBL document CHEMBL3885861, “Open TG-GATES”

Species on record: Rattus norvegicus
Test: Open TG-GATES - Regimen: Single
Assay type: toxicity, organism-based, Sprague-Dawley
Parameters: regimen Single, gender Male, age 6 weeks
Conditions: in vivo, po, route gavage; for TC / TP / gamma-GTP / ALP / ALT / AST / BUN / CRE / DBIL / GLC / IP / K / LDH / RALB / TBIL / PL: tissue Plasma; for APTT / Bas / Eos / Fbg / Ht / Lym / MCHC / MCV / Mono / PT / Plat / RBC / Ret / WBC: tissue Blood; for KIDNEY_L / KIDNEY_R / KIDNEY_TOTAL: tissue Kidney; for LIVER: tissue Liver
[1] = 0 mg/kg, 24 h, dose level Control

CN(C)CCCN1c2ccccc2CCc2ccccc21 [IMIPRAMINE]
TC [1]: 76 mg/dL | TP [1]: 5.6 g/dL | gamma-GTP [1]: 1 IU/L | TERMINAL_BW (10 mg/kg, 3 h, dose level Low): 203.3 g | APTT (10 mg/kg, 3 h, dose level Low): 16.8 s | Bas (10 mg/kg, 3 h, dose level Low): 0% | Eos (10 mg/kg, 3 h, dose level Low): 1.2% | Fbg (10 mg/kg, 3 h, dose level Low): 264.4 mg/dL | Ht (10 mg/kg, 3 h, dose level Low): 42.9% | Lym (10 mg/kg, 3 h, dose level Low): 78.6% | MCHC (10 mg/kg, 3 h, dose level Low): 31.9% | MCV (10 mg/kg, 3 h, dose level Low): 66.6 fL | Mono (10 mg/kg, 3 h, dose level Low): 2.8% | PT (10 mg/kg, 3 h, dose level Low): 16 s | Plat (10 mg/kg, 3 h, dose level Low): 108.8 x10_4/uL | RBC (10 mg/kg, 3 h, dose level Low): 644 x10_4/ul | Ret (10 mg/kg, 3 h, dose level Low): 8.6% | WBC (10 mg/kg, 3 h, dose level Low): 74.5 x10_2/uL | KIDNEY_L (10 mg/kg, 3 h, dose level Low): 0.9 g | KIDNEY_R (10 mg/kg, 3 h, dose level Low): 0.9 g | KIDNEY_TOTAL (10 mg/kg, 3 h, dose level Low): 1.8 g | LIVER (10 mg/kg, 3 h, dose level Low): 9.1 g | ALP (10 mg/kg, 3 h, dose level Low): 1700 IU/L | ALT (10 mg/kg, 3 h, dose level Low): 46.6 IU/L | AST (10 mg/kg, 3 h, dose level Low): 76.8 IU/L | BUN (10 mg/kg, 3 h, dose level Low): 8.6 mg/dL | CRE (10 mg/kg, 3 h, dose level Low): 0.1 mg/dL | DBIL (10 mg/kg, 3 h, dose level Low): 0.01 mg/dL | GLC (10 mg/kg, 3 h, dose level Low): 187.4 mg/dL | IP (10 mg/kg, 3 h, dose level Low): 10 mg/dL | K (10 mg/kg, 3 h, dose level Low): 4.3 meq/L | LDH (10 mg/kg, 3 h, dose level Low): 73 IU/L | RALB (10 mg/kg, 3 h, dose level Low): 2.6 g/dL | TBIL (10 mg/kg, 3 h, dose level Low): 0.066 mg/dL | TC (10 mg/kg, 3 h, dose level Low): 80.4 mg/dL | TP (10 mg/kg, 3 h, dose level Low): 5.5 g/dL | gamma-GTP (10 mg/kg, 3 h, dose level Low): 1.2 IU/L | TERMINAL_BW (10 mg/kg, 6 h, dose level Low): 199.7 g | APTT (10 mg/kg, 6 h, dose level Low): 16 s | Bas (10 mg/kg, 6 h, dose level Low): 0.2% | Eos (10 mg/kg, 6 h, dose level Low): 0.8% | Fbg (10 mg/kg, 6 h, dose level Low): 276.2 mg/dL | Ht (10 mg/kg, 6 h, dose level Low): 42.9% | Lym (10 mg/kg, 6 h, dose level Low): 75% | MCHC (10 mg/kg, 6 h, dose level Low): 32.3% | MCV (10 mg/kg, 6 h, dose level Low): 66.5 fL | Mono (10 mg/kg, 6 h, dose level Low): 2.2% | PT (10 mg/kg, 6 h, dose level Low): 15.8 s | Plat (10 mg/kg, 6 h, dose level Low): 108.4 x10_4/uL | RBC (10 mg/kg, 6 h, dose level Low): 645.6 x10_4/ul | Ret (10 mg/kg, 6 h, dose level Low): 8.3% | WBC (10 mg/kg, 6 h, dose level Low): 92.4 x10_2/uL | KIDNEY_L (10 mg/kg, 6 h, dose level Low): 0.9 g | KIDNEY_R (10 mg/kg, 6 h, dose level Low): 0.9 g | KIDNEY_TOTAL (10 mg/kg, 6 h, dose level Low): 1.9 g | ALP (10 mg/kg, 6 h, dose level Low): 1517 IU/L | ALT (10 mg/kg, 6 h, dose level Low): 54.4 IU/L | AST (10 mg/kg, 6 h, dose level Low): 79.4 IU/L | BUN (10 mg/kg, 6 h, dose level Low): 8.2 mg/dL | CRE (10 mg/kg, 6 h, dose level Low): 0.2 mg/dL | GLC (10 mg/kg, 6 h, dose level Low): 183 mg/dL | IP (10 mg/kg, 6 h, dose level Low): 9.6 mg/dL | K (10 mg/kg, 6 h, dose level Low): 4.2 meq/L | LDH (10 mg/kg, 6 h, dose level Low): 139.2 IU/L | PL (10 mg/kg, 6 h, dose level Low): 137.6 mg/dL | RALB (10 mg/kg, 6 h, dose level Low): 2.5 g/dL | TBIL (10 mg/kg, 6 h, dose level Low): 0.064 mg/dL | TC (10 mg/kg, 6 h, dose level Low): 74.8 mg/dL | TP (10 mg/kg, 6 h, dose level Low): 5.3 g/dL | gamma-GTP (10 mg/kg, 6 h, dose level Low): 1 IU/L | TERMINAL_BW (10 mg/kg, 9 h, dose level Low): 198.9 g | APTT (10 mg/kg, 9 h, dose level Low): 16.4 s | Bas (10 mg/kg, 9 h, dose level Low): 0.2% | Eos (10 mg/kg, 9 h, dose level Low): 1% | Fbg (10 mg/kg, 9 h, dose level Low): 294.4 mg/dL | Ht (10 mg/kg, 9 h, dose level Low): 42.3% | Lym (10 mg/kg, 9 h, dose level Low): 75.6% | MCHC (10 mg/kg, 9 h, dose level Low): 32.5% | MCV (10 mg/kg, 9 h, dose level Low): 64.4 fL | Mono (10 mg/kg, 9 h, dose level Low): 2.2% | PT (10 mg/kg, 9 h, dose level Low): 15.9 s | Plat (10 mg/kg, 9 h, dose level Low): 114.9 x10_4/uL | RBC (10 mg/kg, 9 h, dose level Low): 658 x10_4/ul | Ret (10 mg/kg, 9 h, dose level Low): 7.7% | WBC (10 mg/kg, 9 h, dose level Low): 71.4 x10_2/uL | KIDNEY_L (10 mg/kg, 9 h, dose level Low): 0.9 g | KIDNEY_R (10 mg/kg, 9 h, dose level Low): 0.9 g | KIDNEY_TOTAL (10 mg/kg, 9 h, dose level Low): 1.8 g | LIVER (10 mg/kg, 9 h, dose level Low): 8.2 g | ALP (10 mg/kg, 9 h, dose level Low): 1463.6 IU/L | ALT (10 mg/kg, 9 h, dose level Low): 37.6 IU/L | AST (10 mg/kg, 9 h, dose level Low): 66.2 IU/L | BUN (10 mg/kg, 9 h, dose level Low): 7.4 mg/dL | CRE (10 mg/kg, 9 h, dose level Low): 0.1 mg/dL | DBIL (10 mg/kg, 9 h, dose level Low): 0.01 mg/dL | GLC (10 mg/kg, 9 h, dose level Low): 181 mg/dL | IP (10 mg/kg, 9 h, dose level Low): 9.9 mg/dL | K (10 mg/kg, 9 h, dose level Low): 4.1 meq/L | LDH (10 mg/kg, 9 h, dose level Low): 67.6 IU/L | PL (10 mg/kg, 9 h, dose level Low): 137.4 mg/dL | RALB (10 mg/kg, 9 h, dose level Low): 2.6 g/dL | TBIL (10 mg/kg, 9 h, dose level Low): 0.066 mg/dL | TC (10 mg/kg, 9 h, dose level Low): 78.4 mg/dL | TP (10 mg/kg, 9 h, dose level Low): 5.5 g/dL | gamma-GTP (10 mg/kg, 9 h, dose level Low): 1.2 IU/L | TERMINAL_BW (10 mg/kg, 24 h, dose level Low): 217.3 g | APTT (10 mg/kg, 24 h, dose level Low): 16.2 s | Bas (10 mg/kg, 24 h, dose level Low): 0% | Eos (10 mg/kg, 24 h, dose level Low): 0.4% | Fbg (10 mg/kg, 24 h, dose level Low): 254 mg/dL | Ht (10 mg/kg, 24 h, dose level Low): 40.6% | Lym (10 mg/kg, 24 h, dose level Low): 81% | MCHC (10 mg/kg, 24 h, dose level Low): 32.3% | MCV (10 mg/kg, 24 h, dose level Low): 65.1 fL | Mono (10 mg/kg, 24 h, dose level Low): 2.4% | PT (10 mg/kg, 24 h, dose level Low): 16.2 s | Plat (10 mg/kg, 24 h, dose level Low): 104.4 x10_4/uL | RBC (10 mg/kg, 24 h, dose level Low): 625.4 x10_4/ul | Ret (10 mg/kg, 24 h, dose level Low): 7.4% | WBC (10 mg/kg, 24 h, dose level Low): 76.3 x10_2/uL | KIDNEY_L (10 mg/kg, 24 h, dose level Low): 0.9 g | KIDNEY_R (10 mg/kg, 24 h, dose level Low): 0.9 g | KIDNEY_TOTAL (10 mg/kg, 24 h, dose level Low): 1.8 g | LIVER (10 mg/kg, 24 h, dose level Low): 9.7 g | ALP (10 mg/kg, 24 h, dose level Low): 1443 IU/L | ALT (10 mg/kg, 24 h, dose level Low): 48.6 IU/L | AST (10 mg/kg, 24 h, dose level Low): 80.8 IU/L | BUN (10 mg/kg, 24 h, dose level Low): 15.6 mg/dL | CRE (10 mg/kg, 24 h, dose level Low): 0.2 mg/dL | GLC (10 mg/kg, 24 h, dose level Low): 187.2 mg/dL | IP (10 mg/kg, 24 h, dose level Low): 7.6 mg/dL | K (10 mg/kg, 24 h, dose level Low): 4 meq/L | LDH (10 mg/kg, 24 h, dose level Low): 73.2 IU/L | RALB (10 mg/kg, 24 h, dose level Low): 2.5 g/dL | TBIL (10 mg/kg, 24 h, dose level Low): 0.058 mg/dL | TC (10 mg/kg, 24 h, dose level Low): 78 mg/dL
